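Growth conditions: 96-well plates. Treatment: test compound, 48 hours, 5 concentrations. Analysis: linear interpolation between bracketing concentrations; unreached endpoints set to highest concentration. The concentration for 50% growth inhibition is given as GI50.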 Active and inactive are the calls of the source. Rule as the data show it: active = GI50 up to about 1.1 µM and inactive = higher.
Columns and labels:
Assay in all cases: DTP human tumour cell line panel, 48 h
HCT-15 = test system: HCT-15
UACC-62 = test system: UACC-62
OVCAR-4 = test system: OVCAR-4
A549 = test system: A549
Malme-3M = test system: Malme-3M
MCF7 = test system: MCF7
ACHN = test system: ACHN
CAKI-1 = test system: CAKI-1
SK-MEL-28 = test system: SK-MEL-28
SK-OV-3 = test system: SK-OV-3
SNB-75 = test system: SNB-75
UACC-257 = test system: UACC-257
CCRF-CEM = test system: CCRF-CEM
MDA-MB-231 = test system: MDA-MB-231
HOP-62 = test system: HOP-62
OVCAR-3 = test system: OVCAR-3
EKVX = test system: EKVX
RPMI-8226 = test system: RPMI-8226
SK-MEL-2 = test system: SK-MEL-2
BT-549 = test system: BT-549

Structure (SMILES)	GI50 (HCT-15) [µM]	GI50 (UACC-62)	GI50 (OVCAR-4)	GI50 (A549)	GI50 (Malme-3M)	GI50 (MCF7)	GI50 (ACHN)	GI50 (CAKI-1)	GI50 (SK-MEL-28)	GI50 (SK-OV-3)	GI50 (SNB-75)	GI50 (UACC-257)	GI50 (CCRF-CEM)	GI50 (MDA-MB-231)	GI50 (HOP-62)	GI50 (OVCAR-3)	GI50 (EKVX)	GI50 (RPMI-8226)	GI50 (SK-MEL-2)	GI50 (BT-549)
CN(C)c1ccc(/C=N/Nc2nc3ccccc3c(=O)n2-c2ccccc2)cc1	> 100	28.6 µM (inactive)	15.9 µM (inactive)	> 100 µM (inactive)	43.1 µM (inactive)	> 100 µM (inactive)	67.3 µM (inactive)	> 100 µM (inactive)	> 100 µM (inactive)	72.3 µM (inactive)	5.75 µM (inactive)	> 100 µM (inactive)	> 100 µM (inactive)	63 µM (inactive)	33.3 µM (inactive)	27 µM (inactive)	–	–	–	–
CC(=NNC(=S)Nc1ccc(C)cc1)c1cccc(C(C)=NNC(=S)Nc2ccc(C)cc2)n1	6.82	7.14 µM (inactive)	10.9 µM (inactive)	12.9 µM (inactive)	2.06 µM (inactive)	> 100 µM (inactive)	5.66 µM (inactive)	4.75 µM (inactive)	> 100 µM (inactive)	47.3 µM (inactive)	4.69 µM (inactive)	13.9 µM (inactive)	7.5 µM (inactive)	24.2 µM (inactive)	9.82 µM (inactive)	1.5 µM (inactive)	21.5 µM (inactive)	19.2 µM (inactive)	68.7 µM (inactive)	–
CC(C)C1CC=NN1C(=O)OC(C)(C)C (configuration not stated)	> 100	> 100 µM (inactive)	–	> 100 µM (inactive)	–	> 100 µM (inactive)	> 100 µM (inactive)	> 100 µM (inactive)	–	> 100 µM (inactive)	> 100 µM (inactive)	> 100 µM (inactive)	> 100 µM (inactive)	–	> 100 µM (inactive)	> 100 µM (inactive)	> 100 µM (inactive)	> 100 µM (inactive)	–	–
COc1cc(-c2nc(N)c(C#N)c3c2CCS(=O)(=O)c2ccc(C)cc2-3)cc(OC)c1OC	> 100	> 100 µM (inactive)	> 100 µM (inactive)	> 100 µM (inactive)	17.5 µM (inactive)	–	28.6 µM (inactive)	> 100 µM (inactive)	> 100 µM (inactive)	–	16.7 µM (inactive)	> 100 µM (inactive)	> 100 µM (inactive)	17.3 µM (inactive)	22.9 µM (inactive)	> 100 µM (inactive)	–	> 100 µM (inactive)	49.7 µM (inactive)	53 µM (inactive)
CN1c2ccccc2C(=O)NC12CCNCC2	–	> 100 µM (inactive)	> 100 µM (inactive)	> 100 µM (inactive)	> 100 µM (inactive)	> 100 µM (inactive)	> 100 µM (inactive)	–	> 100 µM (inactive)	> 100 µM (inactive)	> 100 µM (inactive)	> 100 µM (inactive)	> 100 µM (inactive)	–	> 100 µM (inactive)	–	> 100 µM (inactive)	> 100 µM (inactive)	–	–
CC(=O)OCCCCN1C(=O)CSc2ccccc21	> 100	> 100 µM (inactive)	> 100 µM (inactive)	> 100 µM (inactive)	–	> 100 µM (inactive)	> 100 µM (inactive)	> 100 µM (inactive)	> 100 µM (inactive)	> 100 µM (inactive)	> 100 µM (inactive)	> 100 µM (inactive)	> 100 µM (inactive)	–	> 100 µM (inactive)	> 100 µM (inactive)	> 100 µM (inactive)	> 100 µM (inactive)	> 100 µM (inactive)	4.2 µM (inactive)
COc1cc(/C=C2/SC(c3ccccc3)N(c3cccc(NC(C)=O)c3)C2=O)cc(OC)c1OC (configuration not stated)	46.9	50.5 µM (inactive)	66.2 µM (inactive)	47.4 µM (inactive)	28.8 µM (inactive)	39.2 µM (inactive)	> 100 µM (inactive)	> 100 µM (inactive)	34 µM (inactive)	75 µM (inactive)	–	67.8 µM (inactive)	–	–	81.8 µM (inactive)	60.1 µM (inactive)	50.7 µM (inactive)	30.3 µM (inactive)	–	44.7 µM (inactive)
CC1=C(C#N)C(C#N)(C#N)C(NN(C)C)C1 (configuration not stated)	7.38	15.9 µM (inactive)	30.7 µM (inactive)	41.5 µM (inactive)	17.7 µM (inactive)	10.6 µM (inactive)	13.3 µM (inactive)	1.71 µM (inactive)	23 µM (inactive)	> 100 µM (inactive)	21.4 µM (inactive)	10.6 µM (inactive)	3.59 µM (inactive)	14.2 µM (inactive)	16.7 µM (inactive)	–	14 µM (inactive)	10.9 µM (inactive)	20.2 µM (inactive)	–
COCNC(=NC#N)NCOC	> 42.9	> 100 µM (inactive)	> 100 µM (inactive)	> 71.9 µM (inactive)	> 100 µM (inactive)	–	> 100 µM (inactive)	> 100 µM (inactive)	> 100 µM (inactive)	> 100 µM (inactive)	> 100 µM (inactive)	> 100 µM (inactive)	> 100 µM (inactive)	–	> 100 µM (inactive)	> 100 µM (inactive)	> 100 µM (inactive)	> 49.3 µM (inactive)	> 100 µM (inactive)	–
O=C1CCC2(CC1)SCCCS2	> 100	> 100 µM (inactive)	> 100 µM (inactive)	> 100 µM (inactive)	> 100 µM (inactive)	–	40 µM (inactive)	> 100 µM (inactive)	> 100 µM (inactive)	> 100 µM (inactive)	61.1 µM (inactive)	> 100 µM (inactive)	> 100 µM (inactive)	–	> 100 µM (inactive)	> 100 µM (inactive)	> 100 µM (inactive)	> 100 µM (inactive)	> 100 µM (inactive)	–
O/N=C1/C(=C/c2ccc(Cl)c(Cl)c2)CCCC1C(NO)c1ccc(Cl)c(Cl)c1 (configuration not stated)	16.8	18 µM (inactive)	12.9 µM (inactive)	17.2 µM (inactive)	20 µM (inactive)	–	18.4 µM (inactive)	18.8 µM (inactive)	17.9 µM (inactive)	20.4 µM (inactive)	16.6 µM (inactive)	18.7 µM (inactive)	17.2 µM (inactive)	–	20.1 µM (inactive)	14.7 µM (inactive)	21.9 µM (inactive)	17.1 µM (inactive)	17.4 µM (inactive)	–
Cc1cc(Cl)ccc1NC(=O)/C(=N\NC(C)(C)C)C(C#N)c1nc(-c2ccc([N+](=O)[O-])cc2)cs1 (configuration not stated)	> 100	> 100 µM (inactive)	> 100 µM (inactive)	> 100 µM (inactive)	> 100 µM (inactive)	–	> 100 µM (inactive)	> 100 µM (inactive)	> 100 µM (inactive)	> 100 µM (inactive)	> 100 µM (inactive)	> 100 µM (inactive)	> 100 µM (inactive)	–	> 100 µM (inactive)	> 100 µM (inactive)	> 100 µM (inactive)	> 100 µM (inactive)	> 100 µM (inactive)	–
c1ccc(CN2CCC(Nc3ccccc3)(c3nnnn3Cc3ccccc3)CC2)cc1	27.5	23.6 µM (inactive)	29.6 µM (inactive)	32.2 µM (inactive)	18.5 µM (inactive)	22.4 µM (inactive)	35 µM (inactive)	–	17.2 µM (inactive)	70.1 µM (inactive)	22.7 µM (inactive)	14.1 µM (inactive)	20 µM (inactive)	27.2 µM (inactive)	45.7 µM (inactive)	–	23.8 µM (inactive)	12.9 µM (inactive)	–	–
COc1cc(C2=C(C)[C@@H]3CN(CC=C3c3ccc(Cl)cc3)C2)c(S(=O)(=O)O)cc1OC	> 100	> 100 µM (inactive)	> 100 µM (inactive)	> 100 µM (inactive)	> 100 µM (inactive)	–	> 100 µM (inactive)	> 100 µM (inactive)	> 100 µM (inactive)	> 100 µM (inactive)	> 100 µM (inactive)	> 100 µM (inactive)	> 100 µM (inactive)	> 100 µM (inactive)	> 100 µM (inactive)	> 100 µM (inactive)	> 100 µM (inactive)	> 100 µM (inactive)	> 100 µM (inactive)	> 100 µM (inactive)
CC[C@H]1C=CCC[C@@]2(C[C@@H]3CC[C@H]4[C@@H](C(=O)OCCCCCCCCCCCCCCCC(=O)N(CCCNC(C)=O)C[C@H](CCNC(C)=O)OC(C)=O)[C@@]5(CCC[C@@H](C)O5)NC(=[N+]34)N2)O1	1.7	1.85 µM (inactive)	1.4 µM (inactive)	1.88 µM (inactive)	1.54 µM (inactive)	1.46 µM (inactive)	1.89 µM (inactive)	2.22 µM (inactive)	1.28 µM (inactive)	1.74 µM (inactive)	–	1.24 µM (inactive)	–	–	2 µM (inactive)	0.787 µM (active)	0.861 µM (active)	0.227 µM (active)	1.72 µM (inactive)	1.82 µM (inactive)
C=C1C(=O)[C@@]23CC[C@@H]4[C@@]5(C)CCC[C@@]4(OC5=O)C2(C)CC[C@]1(OC)C3 (some centres not stated)	0.581	1.35 µM (inactive)	–	3.27 µM (inactive)	–	0.255 µM (active)	1.77 µM (inactive)	1.75 µM (inactive)	1.65 µM (inactive)	–	1.24 µM (inactive)	1.51 µM (inactive)	0.0605 µM (active)	–	1.17 µM (inactive)	1.01 µM (active)	9.18 µM (inactive)	0.205 µM (active)	1.06 µM (active)	–

— ChEMBL document CHEMBL1201862, “PubChem BioAssay data set” (2004)
